Measured values as given in US20010036941A1, “Use of 7-(1-aminomethyl-2-oxa-7-aza-bicyclo[3.3.0]oct-7-yl)-quinolonecarboxylic acid and -naphthyridonecarboxylic acid derivatives for the therapy of Helicobacter pylori infections and associated gastroduodenal disorders” (priority 1996, published 2001).
In brackets after ≈: the same amount, converted by molar mass. Counter-ions that a name gives are not always drawn.

Assays:
[1] = tested on: H. felis strain (ATCC 49179); experiment: H. felis mouse model (clearance / eradication, urease test); format: in vivo, mice; settings: for Eradication of H. felis in the mouse model: animal model (H. felis, mouse), monotherapeutic treatment; for Clearance %: 3-day treatment of infected mice, 2 × 10 mg/kg, 6 animals per group
Procedure: The bacteria were administered as a suspension (0.1 ml with 10^8-10^9 bacteria) 4 times within 7 days using a pharyngeal tube. Alternatively, stomach homogenates of mice which had been infected earlier were also used for infection.
In some cases, pathogen eradication 24 weeks after the end of the treatment was also determined. In accordance with the “CLO” test used in clinical diagnostics, a microtitre-based urease test was used. Defined stomach biopsy specimens were tested for change of colour within a period of 24 hours.

[2] = tested on: H. pylori NCTC 11637; experiment: MIC, agar dilution test, H. pylori NCTC 11637; format: cell-based; settings: for MIC: Helicobacter pylori, NCTC11637, lowest concentration with no visible growth
Procedure: (§1) For inoculation, fresh Helicobacter cultures from liquid culture or suspension of the pathogens from agar plates were used. The inoculated agar plates were incubated at 37° C. in an atmosphere containing 5-10% of CO2 for 48-72 hours.

[3] = tested on: H. pylori clinic isolate 008; experiment: MIC, agar dilution test, H. pylori clinic isolate 008; format: cell-based; settings: lowest concentration with no visible growth; for MIC: Helicobacter pylori
Procedure: as §1

[4] = tested on: H. pylori; settings: cited from earlier work

| SMILES | melting point | also measured |
| --- | --- | --- |
| NCC12CN(c3c(F)cc4c(=O)c(C(=O)OCc5ccccc5)cn(C5CC5)c4c3F)CC1CCO2 (stereo not drawn) [Example 14 B, Benzyl 7-(1-aminomethyl-2-oxa-7-aza-bicyclo[3.3.0]oct-7-yl)-1-cyclopropyl-6,8-difluoro-1,4-dihydro-4-oxo-3-quinolinecarboxylate] | 118 to 119 °C (dec.) | – |
| CCOC(=O)c1cn(C2CC2)c2c(F)c(N3CC4CCOC4(CN)C3)c(F)cc2c1=O.O=C(O)C(F)(F)F (stereo not drawn) | 139 to 141 °C | – |
| CC(C)(C)n1cc(C(=O)O)c(=O)c2cc(F)c(N3CC4CCOC4(CN)C3)cc21 (stereo not drawn) [Example 17 B, 7-(1-aminomethyl-2-oxa-7-aza-bicyclo[3.3.0]oct-7-yl)-1-tert-butyl-6-fluoro-1,4-dihydro-4-oxo-3-quinolinecarboxylic acid] | 217 to 218 °C (dec.) | – |
| NCC12CN(c3c(F)cc4c(=O)c(C(=O)OCc5ccccc5)cn(C5CC5)c4c3F)CC1CCO2.O=C(O)C(F)(F)F (stereo not drawn) | 119 to 120 °C (dec.) | – |
| O=C(O)c1cn(C2CC2)c2c(Cl)c(N3C[C@@H]4CCCN[C@@H]4C3)c(F)cc2c1=O [BAY Y 3118, 8-chloro-1-cyclopropyl-7-([S,S]-2,8-diazabicyclo[4.3.0]non-8-yl)-6-fluoro-1,4-dihydro-4-oxo-3-quinolinecarboxylic acid, reference compound] | – | Eradication of H. felis in the mouse model [1]: not possible to achieve eradication |
| CC(C)(CF)n1cc(C(=O)O)c(=O)c2cc(F)c(N3CC4CCOC4(CN)C3)cc21.O=C(O)C(F)(F)F (stereo not drawn) | 197 to 198 °C (dec.) | – |
| CN1COc2c(N3CC4CCOC4(CN)C3)c(F)cc3c(=O)c(C(=O)O)cn1c23.Cl (stereo not drawn) | 233 °C | – |
| CNn1cc(C(=O)O)c(=O)c2cc(F)c(N3CC4CCOC4(CN)C3)c(F)c21.Cl (stereo not drawn) | 177 to 179 °C (dec.) | – |
| CCCCOC(=O)c1cn(C2CC2)c2c(F)c(N3CC4CCOC4(CN)C3)c(F)cc2c1=O (stereo not drawn) [Example 11 B, 1-Butyl 7-(1-aminomethyl-2-oxa-7-aza-bicyclo[3.3.0]oct-7-yl)-1-cyclopropyl-6,8-difluoro-1,4-dihydro-4-oxo-3-quinolinecarboxylate] | 117 to 119 °C (dec.) | – |
| Cl.NCC12CN(c3c(F)cc4c(=O)c(C(=O)O)cn(C5CC5)c4c3F)CC1CCO2 (racemic) [Substance A, rac. 7-(1-aminomethyl-2-oxa-7-aza-bicyclo[3.3.0]oct-7-yl)-1-cyclopropyl-6,8-difluoro-1,4-dihydro-4-oxo-3-quinolinecarboxylic acid hydrochloride] | – | Clearance % [1]: 67%; Eradication of the pathogen ([1]; 14-day treatment of the mice with 3×10 mg/kg): total eradication |
| CCOC(=O)COC(=O)c1cn(C2CC2)c2c(F)c(N3CC4CCOC4(CN)C3)c(F)cc2c1=O (stereo not drawn) [Example 15 B, Ethoxycarbonylmethyl 7-(1-aminomethyl-2-oxa-7-aza-bicyclo[3.3.0]oct-7-yl)-1-cyclopropyl-6,8-difluoro-1,4-dihydro-4-oxo-3-quinolinecarboxylate] | 144 to 146 °C (dec.) | – |
| NC(=O)NCC12CN(c3c(F)cc4c(=O)c(C(=O)O)cn([C@@H]5C[C@@H]5F)c4c3Cl)CC1CCO2 (stereo partly drawn) [Example 30, 8-chloro-6-fluoro-1-[(1R,2S)-2-fluoro-cyclopropyl]-1,4-dihydro-4-oxo-7-(1-ureidomethyl-2-oxa-7-aza-bicyclo[3.3.0]oct-7-yl)-3-quinolinecarboxylic acid] | – | MIC [2]: 0.125 µg/mL (≈ 0.259 µM); MIC [3]: 0.25 µg/mL (≈ 0.518 µM) |
| NCC12CN(c3cc4c(cc3F)c(=O)c3c(=O)[nH]sc3n4C3CC3)CC1CCO2.O=C(O)C(F)(F)F (stereo not drawn) | 215 °C (dec.) | – |
| C=Cc1c(F)c(N2CC3CCOC3(CN)C2)c(F)c2c1c(=O)c(C(=O)O)cn2C1CC1.Cl (stereo not drawn) [Ref.*^)] | – | MIC H. pylori 11637 ([2]; lowest concentration with no visible growth): 0.25 µg/mL; MIC H. pylori 008 [3]: 0.25 µg/mL |
| Cl.NCC12CN(c3nc4c(cc3F)c(=O)c(C(=O)O)cn4-c3cnsn3)CC1CCO2 (stereo not drawn) | 207 °C (dec.) | – |
| Cl.N#Cc1c(N2CC3CCOC3(CN)C2)c(F)cc2c(=O)c(C(=O)O)cn(C3CC3)c12 (single isomer, unassigned; (+)) [Example 5 C, (+)-7-(1-aminomethyl-2-oxa-7-aza-bicyclo[3.3.0]oct-7-yl)-8-cyano-1-cyclopropyl-6-fluoro-1,4-dihydro-4-oxo-3-quinolinecarboxylic acid hydrochloride] | – | Clearance % [1]: 100% |
| CCn1cc(C(=O)O)c(=O)c2cc(F)c(N3CCNC(C)C3)c(F)c21 (stereo not drawn) [lomefloxacin, reference compound] | – | Eradication of H. felis in the mouse model [1]: not capable of eradicating the germ |
| C=CCOC(=O)c1cn(C2CC2)c2c(F)c(N3CC4CCOC4(CN)C3)c(F)cc2c1=O.O=C(O)C(F)(F)F (stereo not drawn) | 118 to 119 °C (dec.) | – |
| C=Cc1c(F)c(N2CC3CCOC3(CN)C2)c(F)c2c1c(=O)c(C(=O)O)cn2C1CC1.Cl (stereo not drawn) [Ref.*^), 7-(1-aminomethyl-2-oxa-7-aza-bicyclo[3.3.0]oct-7-yl)-1-cyclopropyl-6,8-difluror-1,4-dihydro-4-oxo-5-vinyl-3-quinolinecarboxylic acid hydrochloride] | – | Activity against H. pylori [4]: relatively low |
| C[C@H]1COc2c(N3CC4CCOC4(CN)C3)c(F)cc3c(=O)c(C(=O)O)cn1c23.Cl (stereo partly drawn) | 191 to 193 °C (dec.) | – |
| NC(=O)NCC12CN(c3c(F)cc4c(=O)c(C(=O)O)cn(C5CC5)c4c3OC(F)F)CC1CCO2 (stereo not drawn) [Example 29, 1-cyclopropyl-8-difluoromethoxy-6-fluoro-1,4-dihydro-4-oxo-7-(1-ureidomethyl-2-oxa-7-aza-bicyclo[3.3.0]oct-7-yl)-3-quinolinecarboxylic acid] | – | MIC [2]: 8 µg/mL (≈ 16.1 µM); MIC [3]: 8 µg/mL (≈ 16.1 µM) |

The next lines start with results.

| melting point | SMILES | also measured |
| --- | --- | --- |
| 133 to 135 °C (dec.) | C=CCOC(=O)c1cn(C2CC2)c2c(F)c(N3CC4CCOC4(CN)C3)c(F)cc2c1=O (stereo not drawn) [Example 12 B, Allyl 7-(1-aminomethyl-2-oxa-7-aza-bicyclo[3.3.0]oct-7-yl)-1-cyclopropyl-6,8-difluoro-1,4-dihydro-4-oxo-3-quinolinecarboxylate] | – |
| 251 to 253 °C (dec.) | Cc1c(F)c(N2CC3CCOC3(CN)C2)cc2c1c(=O)c(C(=O)O)cn2C1CC1.Cl (stereo not drawn) | – |
| 225 °C (dec.) | Cl.NCC12CN(c3cc4c(c(O)c3F)c(=O)c(C(=O)O)cn4C3CC3)CC1CCO2 (stereo not drawn) | – |
| 125 to 128 °C (dec.) | Cc1nc(N2CC3CCOC3(CN)C2)c(Cl)c2c1c(=O)c(C(=O)O)cn2C1CC1.O=C(O)C(F)(F)F (stereo not drawn) | – |
| 109 to 111 °C | COC(=O)c1cn(C2CC2)c2c(F)c(N3CC4CCOC4(CN)C3)c(F)cc2c1=O.Cl (stereo not drawn) | – |
| 185 to 187 °C (dec.) | NC(=O)NCC12CN(c3c(F)cc4c(=O)c(C(=O)O)cn(C5CC5)c4c3F)CC1CCO2 (stereo not drawn) [Example 27, 1-cyclopropyl-6,8-difluoro-1,4-dihydro-4-oxo-7-(1-ureidomethyl-2-oxa-7-aza-bicyclo[3.3.0]oct-7-yl)-3-quinolinecarboxylic acid] | MIC [2]: 0.5 µg/mL (≈ 1.12 µM); MIC [3]: ≤ 0.015 µg/mL |
| 242 to 244 °C (dec.) | COc1c(N2CC3CCOC3(CN)C2)c(F)c(N)c2c(=O)c(C(=O)O)cn(C3CC3)c12.Cl (stereo not drawn) | – |
| 209 to 211 °C (dec.) | COc1c(N2CC3CCOC3(CN)C2)c(F)c(N)c2c(=O)c(C(=O)O)cn(C3CC3)c12 (stereo not drawn) [Example 2 C, 5-amino-7-(1-aminomethyl-2-oxa-7-aza-bicyclo[3.3.0]oct-7-yl)-1-cyclopropyl-6-fluoro-1,4-dihydro-8-methoxy-4-oxo-3-quinolinecarboxylic acid] | – |
| 208 to 209 °C (dec.) | O=CNCC12CN(c3c(F)cc4c(=O)c(C(=O)O)cn(C5CC5)c4c3F)CC1CCO2 (stereo not drawn) [Example 31, 1-cyclopropyl-6,8-difluoro-7-(1-formylaminomethyl-2-oxa-7-aza-bicyclo[3.3.0]oct-7-yl)-1,4-dihydro-4-oxo-3-quinolinecarboxylic acid] | MIC [2]: 0.5 µg/mL (≈ 1.15 µM); MIC [3]: < 0.5 µg/mL |
| 215 to 216 °C (dec.) | COc1c(N2CC3CCOC3(CN)C2)c(F)cc2c(=O)c(C(=O)O)cn(C3CC3)c12.O=C(O)C(F)(F)F (stereo not drawn) | – |
| 199 to 200 °C (dec.) | CCOC(=O)c1cn(C2CC2)c2c(F)c(N3CC4CCOC4(CN)C3)ncc2c1=O.O=C(O)C(F)(F)F (stereo not drawn) | – |
| 127 to 129 °C (dec.) | C#CCOC(=O)c1cn(C2CC2)c2c(F)c(N3CC4CCOC4(CN)C3)c(F)cc2c1=O (stereo not drawn) [Example 13 B, Propargyl 7-(1-aminomethyl-2-oxa-7-aza-bicyclo[3.3.0]oct-7-yl)-1-cyclopropyl-6,8-difluoro-1,4-dihydro-4-oxo-3-quinolinecarboxylate] | – |
| 301 to 304 °C (dec.) | NCC12CN(c3ncc4c(=O)c(C(=O)O)cn(C5CC5)c4c3F)CC1CCO2 (stereo not drawn) (as salt: hydrochloride) | – |
